Experimental data reported in PubChem BioAssay AID330 (DTP/NCI, 2004).
Several values for one entry are separate records, joined by “and”; a condition that tells them apart may be missing. Identical values can stand only once. Inconclusive results and toxic doses are left out.

Test system: P388 leukemia ip, CD2F1 mice, survival T/C
Assay: NCI In Vivo Anticancer Drug Screen. Data for tumor model P388 Leukemia (intraperitoneal) in CD2F1 (CDF1) mice
Details: endpoint: median survival time, higher = longer survival
Procedure, shortened: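 Mice carrying the transplanted tumor received test compound or vehicle. Survival was recorded in each group, and the value is the treated-group measurement divided by that of the vehicle-treated control group.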

[1] = dose: 50.0 mg/kg/injection, schedule: Q01DX005 (ip), vehicle: Klucel (hydroxypropylcellulose) (HPC)

For CCc1nc(N)nc(N)c1-c1ccc2nn(-c3ccccc3)[n+]([O-])c2c1, the T/C [1] was 108 % of control and the T/C (dose: 200.0 mg/kg/injection, schedule: Q01DX005 (ip), vehicle: Klucel (hydroxypropylcellulose) (HPC)) was 87 % of control.

In the case of c1ccc2c3[n+](ccc2c1)CCC[n+]1ccc2ccccc2c1-3, the T/C (dose: 3.12 mg/kg/injection, schedule: Q01DX001 (ip), vehicle: saline) is reported as 106 % of control, the T/C (dose: 6.25 mg/kg/injection, schedule: Q01DX001 (ip), vehicle: saline) is reported as 106 % of control and the T/C (dose: 12.5 mg/kg/injection, schedule: Q01DX001 (ip), vehicle: saline) is reported as 92 % of control.

In the case of COC(=O)CC[C@@H](C)C1CC[C@H]2[C@@H]3CC[C@H]4C=C(O)C(=O)C[C@]4(C)[C@H]3C[C@H](OC(C)=O)[C@]12C (some centres not stated), the T/C (dose: 100.0 mg/kg/injection, schedule: Q04DX002 (ip), vehicle: Klucel (hydroxypropylcellulose) (HPC)) is reported as 102 % of control, the T/C (dose: 200.0 mg/kg/injection, schedule: Q04DX002 (ip), vehicle: Klucel (hydroxypropylcellulose) (HPC)) is reported as 101 % of control and the T/C (dose: 400.0 mg/kg/injection, schedule: Q04DX002 (ip), vehicle: Klucel (hydroxypropylcellulose) (HPC)) is reported as 108 % of control.

COC(=O)c1nc(=S)[nH]c(C(=O)OC)c1C(=O)c1ccc(N2CCN(c3ccc(C(=O)c4c(C(=O)OC)nc(=S)[nH]c4C(=O)OC)cc3)CC2)cc1 was tested, and the T/C (dose: 60.0 mg/kg/injection, schedule: Q01DX005 (ip), vehicle: suspension in saline) was 99 % of control, the T/C (dose: 120.0 mg/kg/injection, schedule: Q01DX005 (ip), vehicle: suspension in saline) was 97 % of control and the T/C (dose: 240.0 mg/kg/injection, schedule: Q01DX005 (ip), vehicle: suspension in saline) was 100 % of control.

O=C1CC(=O)N2C(=O)CC(=O)N12 was tested, and the T/C (dose: 60.0 mg/kg/injection, schedule: Q01DX005 (ip), vehicle: saline with Tween-80) was 99 % of control, the T/C (dose: 120.0 mg/kg/injection, schedule: Q01DX005 (ip), vehicle: saline with Tween-80) was 103 % of control and the T/C (dose: 240.0 mg/kg/injection, schedule: Q01DX005 (ip), vehicle: saline with Tween-80) was 97 % of control.

In the case of CC[C@@]1(O)C(=O)OCc2c1cc1n(c2=O)Cc2cc3cc(O)ccc3nc2-1, the T/C (dose: 0.5 mg/kg/injection, schedule: Q04DX003 (ip), vehicle: other) is reported as 160 % of control and 229 % of control, the T/C (dose: 0.79 mg/kg/injection, schedule: Q04DX003 (ip), vehicle: other) is reported as 165 % of control and the T/C (dose: 1.0 mg/kg/injection, schedule: Q04DX003 (ip), vehicle: other) is reported as 166 % of control and 192 % of control. The T/C (dose: 1.57 mg/kg/injection, schedule: Q04DX003 (ip), vehicle: other) was 199 % of control, the T/C (dose: 2.0 mg/kg/injection, schedule: Q04DX003 (ip), vehicle: other) was 229 % of control and the T/C (dose: 3.13 mg/kg/injection, schedule: Q04DX003 (ip), vehicle: other) was 295 % of control. The T/C (dose: 4.0 mg/kg/injection, schedule: Q04DX003 (ip), vehicle: other) was 284 % of control and 314 % of control and the T/C (dose: 8.0 mg/kg/injection, schedule: Q04DX003 (ip), vehicle: other) was 101 % of control.

C=C1C(=O)OC2C1C(OC(=O)/C(C)=C/CO)C/C(C)=C/CCC1(CO)OC21 (configuration not stated) was tested, and the T/C (dose: 0.5 mg/kg/injection, schedule: Q01DX009 (ip), vehicle: Klucel (hydroxypropylcellulose) (HPC)) was 100 % of control, the T/C (dose: 1.0 mg/kg/injection, schedule: Q01DX009 (ip), vehicle: Klucel (hydroxypropylcellulose) (HPC)) was 91 % of control and the T/C (dose: 2.0 mg/kg/injection, schedule: Q01DX009 (ip), vehicle: Klucel (hydroxypropylcellulose) (HPC)) was 100 % of control. The T/C (dose: 4.0 mg/kg/injection, schedule: Q01DX009 (ip), vehicle: Klucel (hydroxypropylcellulose) (HPC)) was 103 % of control and 113 % of control, the T/C (dose: 8.0 mg/kg/injection, schedule: Q01DX009 (ip), vehicle: Klucel (hydroxypropylcellulose) (HPC)) was 105 % of control and the T/C (dose: 16.0 mg/kg/injection, schedule: Q01DX009 (ip), vehicle: Klucel (hydroxypropylcellulose) (HPC)) was 118 % of control.

Nc1cccc2c1C(=O)c1ccc(C(=O)O)cc1C2=O was tested, and the T/C [1] was 101 % of control and the T/C (dose: 100.0 mg/kg/injection, schedule: Q01DX005 (ip), vehicle: Klucel (hydroxypropylcellulose) (HPC)) was 104 % of control.

For COc1cc(C(=O)OC(C)CC2(c3ccccc3)C(=O)NC(=O)NC2=O)cc(OC)c1OC (configuration not stated), the T/C (dose: 50.0 mg/kg/injection, schedule: Q01DX009 (ip), vehicle: saline with Tween-80) was 90 % of control and the T/C (dose: 100.0 mg/kg/injection, schedule: Q01DX009 (ip), vehicle: saline with Tween-80) was 90 % of control.

With CN(C)c1ccc(C=NCCCN2CCN(CCCN=Cc3ccc(N(C)C)cc3)CC2)cc1 the T/C (dose: 12.5 mg/kg/injection, schedule: Q01DX009 (ip), vehicle: Klucel (hydroxypropylcellulose) (HPC)) was 93 % of control, the T/C (dose: 25.0 mg/kg/injection, schedule: Q01DX009 (ip), vehicle: Klucel (hydroxypropylcellulose) (HPC)) was 99 % of control and the T/C (dose: 50.0 mg/kg/injection, schedule: Q01DX009 (ip), vehicle: Klucel (hydroxypropylcellulose) (HPC)) was 104 % of control. The T/C (dose: 100.0 mg/kg/injection, schedule: Q01DX009 (ip), vehicle: Klucel (hydroxypropylcellulose) (HPC)) was 112 % of control and the T/C (dose: 200.0 mg/kg/injection, schedule: Q01DX009 (ip), vehicle: Klucel (hydroxypropylcellulose) (HPC)) was 105 % of control.
